Read-outs that look alike come from different tables or passages of the source.
Biological target: T1, hM4 (Homo sapiens, UniProt P08173)
T1 construct: expressed in transfected cells; host or cells: CHO cells stably expressing human M4 (G418 selection only)
T1 sequence (P08173 1-479): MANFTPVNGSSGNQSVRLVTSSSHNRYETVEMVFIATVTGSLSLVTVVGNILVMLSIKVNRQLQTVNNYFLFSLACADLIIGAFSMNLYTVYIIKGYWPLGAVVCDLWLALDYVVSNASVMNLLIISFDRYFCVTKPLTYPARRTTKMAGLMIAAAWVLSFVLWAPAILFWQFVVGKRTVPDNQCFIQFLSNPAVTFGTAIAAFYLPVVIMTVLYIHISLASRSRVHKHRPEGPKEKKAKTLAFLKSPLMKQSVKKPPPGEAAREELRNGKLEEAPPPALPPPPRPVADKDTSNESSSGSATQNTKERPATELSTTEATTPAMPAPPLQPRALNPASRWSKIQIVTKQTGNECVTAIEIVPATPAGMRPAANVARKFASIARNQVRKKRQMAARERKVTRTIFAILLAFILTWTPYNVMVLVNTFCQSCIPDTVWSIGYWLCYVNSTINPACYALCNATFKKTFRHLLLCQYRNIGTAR
Experiment: Cellular cAMP Gi HTRF assay in CHO cells, agonist and potentiator modes
Assay type: cell-based
Description: Activation of the M4 receptor leads to the inhibition of cAMP production by coupling to Gi/o proteins. To measure the level of cAMP inhibition by M4 allosteric modulators, a Homogeneous Time-Resolved Fluorescence (HTRF®) cAMP assay was employed using CHO cells stably expressing human or rat M4 receptors. The HTRF cAMP assay is a Time-Resolved Resonance Energy Transfer (TR-FRET) competitive immunoassay. Endogenous intracellular cAMP generated by cells competes with Europium cryptate-labeled cAMP (Europium donor, emission […]) for the binding to a cAMP antibody labeled with d2 (d2-acceptor, emission […]). Thus, the fluorescence emission ratio (665 nm/620 nm) is inversely proportional to the cAMP amount in the cells. Compound-mediated M4 activation results in an increase in HTRF ratio (665 nm/620 nm), indicative of a decrease in intracellular cAMP level. To monitor agonist activity, compounds were added to the M4 cells in the presence of an EC80 concentration of forskolin (adenylyl cyclase activator) which induces a submaximal intracellular cAMP level. To assess potentiator activity, compounds were added to the M4 cells with an EC80 concentration of forskolin in the presence of an EC20 concentration of acetylcholine. This functional assay allows determination of the potency and efficacy of compounds directly activating or potentiating the Gi/o-coupled M4 receptor; representative data are shown in Table 3.
Functional agonist and potentiator activities of compounds were determined by measuring cAMP levels in Chinese Hamster Ovary (CHO) cells stably expressing human or rat M4 muscarinic receptors using an HTRF cAMP Gi/o kit. Cells were maintained in F12 medium containing 10% FBS, 20 mM HEPES, 1× Antibiotic/Antimycotic, and G418 (500 μg/ml) in 37° C. humidified incubators in the presence of 5% CO2. The day before assay, the cells were trypsinized and resuspended in plating medium (growth medium without G418). The cells were plated to white, solid, flat-bottomed, 384 well plates at densities of 4,000 and 6,000 cells/[…]/well, of human M4 and rat M4 cells, respectively. The cell plates were spun at 100×g for 1 min, then immediately placed in a 37° C. incubator in the presence of 5% CO2 overnight.
The next day, reagents were freshly diluted at a 2× concentration in assay buffer using F12 basal medium or stimulation buffer. All assay buffers contained 500 μM IBMX to block cAMP degradation. Activation of M4 by compounds was examined in cells stimulated with an EC80 concentration of forskolin to induce submaximal intracellular cAMP levels. Forskolin EC80 concentrations were determined from forskolin concentration response curves (CRCs) and ranged from 1.5 to 2.5 μM. Compounds (10 mM) were prepared in 100% DMSO and further serially diluted either 1:3 or 1:5 into a […] CRC in DMSO using a Bravo Liquid Handler in a 384 well microplate.
Agonist assay mode was used to assess the abilities of M4 compounds to directly activate M4 receptors in the absence of the agonist, acetylcholine. The 10-point serially diluted compounds, starting 30 μM as a final concentration, were transferred to a compound plate using an Echo plate reformat protocol. 2× assay buffer containing an EC80 concentration of forskolin concentration was added to the compound plate. Vehicle (1% DMSO) was added to the following control wells; baseline cAMP (no forskolin), forskolin max, and forskolin EC80. 10 μL/well of the prepared 2× assay buffer was immediately added to the cell plates using a Bravo 384 well tip liquid handler. The cell plates were immediately spun for 30 seconds at 100×g and incubated at 37° C. for 10 min with gentle shaking at 50 rpm. An acetylcholine CRC was also performed in the presence of an EC80 concentration of forskolin to determine the concentrations of acetylcholine inducing maximal (ECmax) and submaximal (EC20) cAMP inhibition in order to prepare for the subsequent potentiator mode assay. […]

[1] = agonist mode, forskolin EC80, no acetylcholine
[2] = agonist mode, forskolin EC80, no acetylcholine, read-out: hM4_cAMP Activity Agonist EC50
[3] = potentiator mode, forskolin EC80 plus ACh EC20
[4] = potentiator mode, forskolin EC80 plus ACh EC20, read-out: hM4_cAMP Activity PAM EC50

Row | hM4_cAMP Activity Agonist % ACh Max [1] | EC50 [2] | hM4_cAMP Activity PAM % ACh Max [3] | EC50 [4] | SMILES
1 | 106 % ACh Max | 20 nM | 94 % ACh Max | 6 nM | [2H]C1([2H])Oc2ccc(OC3CCN(c4nc5c(cc4C)C(=O)NC5)CC3)cc2OC1([2H])[2H] [Compound 3, 2-(4-((2,3-dihydrobenzo[b][1,4]dioxin-6-yl-2,2,3,3-d4)oxy)piperidin-1-yl)-3-methyl-6,7-dihydro-5H-pyrrolo[3,4-b]pyridin-5-one]
2 | 89 % ACh Max | 16 nM | 70 % ACh Max | 3 nM | [2H]C1([2H])Oc2ccc(OC3CCN(c4nc5nn(C)c(=O)n5cc4C)CC3)cc2OC1([2H])[2H] [Compound A6, 7-(4-((2,3-dihydrobenzo[b][1,4]dioxin-6-yl-2,2,3,3-d4)oxy)piperidin-1-yl)-2,6-dimethyl-[1,2,4]triazolo[4,3-a]pyrimidin-3(2H)-one]
3 | 105 % ACh Max | 7 nM | 82 % ACh Max | 2 nM | [2H]C1([2H])Oc2ccc(OC3CCN(c4nc5nn(C)c(=O)n5c(C)c4C)CC3)cc2OC1([2H])[2H] [Compound A10, 7-(4-((2,3-dihydrobenzo[b][1,4]dioxin-6-yl-2,2,3,3-d4)oxy)piperidin-1-yl)-2,5,6-trimethyl-[1,2,4]triazolo[4,3-a]pyrimidin-3(2H)-one]
